Results reported in patent publication US8445444B2, “Compositions and methods for diagnosing, treating, and preventing prostate conditions” (Phigenix, Inc., priority 2007, dated 2013).

How the values were obtained:
Format in all cases: cell-based, human
DU145 [1] = assay: Phase contrast microscopy of cell growth; settings: DU145, 48 h DEFB1 induction
Description: (§1) Microscopic Analysis: Cell morphology was analyzed by phase contrast microscopy. DU145, PC3 and LNCaP cells containing no vector, empty plasmid or DEFB1 plasmid were seeded onto 6 well culture plates (BD Falcon, USA). The following day plasmid-containing cells were induced for a period of 48 h with media containing 10 μM Ponasterone A, while control cells received fresh media. The cells were then viewed under an inverted Zeiss IM 35 microscope (Carl Zeiss, Germany). Phase contrast pictures of a field of cells were obtained using the SPOT Insight Mosaic 4.2 camera (Diagnostic Instruments, USA). Cells were examined by phase contrast microscopy under 32× magnification and digital images were stored as uncompressed TIFF files and exported into Photoshop CS software (Adobe Systems, San Jose, Calif.) for image processing and hard copy presentation.
(§2) Phase Contrast Microscopy: The effect of PAX2 knock-down on cell growth was analyzed by phase contrast microscopy. Here, 1-2×10^4 cells were seeded onto 6 well culture plates (BD Falcon, USA). The following day cells were treated with media only, negative control non-specific siRNA or PAX2 siRNA and allowed to incubate for six days. The cells were then viewed under an inverted Zeiss IM 35 microscope (Carl Zeiss, Germany) at 32× magnification. Phase contrast pictures of a field of cells were obtained using the SPOT Insight Mosaic 4.2 camera (Diagnostic Instruments, USA).
(§3) Phase contrast microscopy: The effect of PAX2 knockdown on cell number was analyzed by phase contrast microscopy. Here, 1-2×10^4 cells were seeded overnight onto six-well culture plates (BD Falcon, USA). Next the cells were treated with media only, negative control non-specific siRNA or PAX2 siRNA and allowed to incubate for 6 days. The cells were then viewed under an inverted Zeiss IM 35 microscope (Carl Zeiss, Germany). Phase contrast pictures of a field of cells were obtained using the SPOT Insight Mosaic 4.2 camera (Diagnostic Instruments, USA).

LNCaP = assay: Phase contrast microscopy of cell growth; settings: 48 h DEFB1 induction
Description: as §1, §2, §3

PC3 [2] = assay: Phase contrast microscopy of cell growth; settings: PC3, 48 h DEFB1 induction
Description: as §1, §2, §3

PC3/AR+ = assay: MTT cell viability assay; settings: PC3/AR+ compared with PC3
Description: MTT cell viability assay: To examine the effects of hBD-1 on cell growth, metabolic 3-[4,5-dimethylthiazol-2-yl]-2,5-diphenyl tetrazolium bromide (MTT) assay was performed. DU145, LNCaP, PC3 and PC3/AR+ cells co-transfected with pvgRXR plasmid and pIND/hBD-1 construct or control pvgRXR plasmid were seeded onto a 96-well plate at 1-5×10^3 cells per well. Twenty-four hours after seeding, fresh growth medium was added containing 10 μM Pon A daily to induce hBD-1 expression for 24, 48 and 72 h after which the MTT assay was performed according to the manufacturer's instructions (Promega). Reactions were performed three times in triplicate.

DU145 [3] = assay: Annexin V-FITC/propidium iodide flow cytometry
Description: (§4) Flow Cytometry: PC3 and DU145 cells co-transfected with the DEFB1 expression system were grown in 60-mm dishes and induced for 12, 24, and 48 hours with 10 μM Ponasterone A. Following each incubation period, the medium was collected from the plates (to retain any detached cells) and combined with PBS used to wash the plates. The remaining attached cells were harvested by trypsinization and combined with the detached cells and PBS. The cells were then pelleted at 4° C. (500×g) for 5 min, washed twice in PBS, and resuspended in 100 ul of 1× Annexin binding buffer (0.1 M Hepes/NaOH at pH 7.4, 1.4 M NaCl, 25 mM CaCl2) containing 5 μl of Annexin V-FITC and 5 μl of PI. The cells were incubated at RT for 15 min in the dark, then diluted with 400 μl of 1× Annexin binding buffer and analyzed by FACscan (Becton Dickinson, San Jose, Calif.). All reactions were performed three times.
(§5) Flow cytometry: PC3 and DU145 cells transfected with the hBD-1 expression system were grown in 60-mm dishes and induced for 12, 24, and 48 h with 10 μM Pon A. Following each incubation period, the medium was collected from the plates (to retain any detached cells) and combined with PBS used to wash the plates. The remaining attached cells were harvested by trypsinization and combined with the detached cells and PBS. The cells were then pelleted at 4° C. (500×g) for 5 min, washed twice in PBS, and resuspended in 100 μl, of 1× Annexin binding buffer (0.1 M Hepes/NaOH at pH 7.4, 1.4 M NaCl, 25 mM CaCl2) containing […] Annexin V-FITC and 5 μl of PI. The cells were incubated at RT for 15 min in the dark, then diluted with 400 μl of 1× Annexin binding buffer and analyzed by FACscan (Becton Dickinson, San Jose, Calif.). All reactions were performed three times.

PC3 [4] = assay: Annexin V-FITC/propidium iodide flow cytometry
Description: as §4, §5

In the case of “DEFB1: human beta defensin-1 expressed from the ecdysone inducible pIND/DEFB1 construct, induced with Ponasterone A (DHYNCVSSGGQCLYSACPIFTKIQGTCYRGKAKCCK; UniProt P60022 33-68, looked up)”, the cell number (DU145 [1]) is reported as “significant reduction in cell number”, the cell proliferation (LNCaP) is reported as “no effect on cell proliferation” and the cell number (PC3 [2]) is reported as “significant reduction in cell number”. For the same substance, the “hBD-1 cytotoxicity with ectopic AR expression” value (PC3/AR+) was “no difference between PC3/AR+ and PC3 cells”, the “number of apoptotic cells (lower and upper right quadrants)” value (DU145 [3]; DU145, 12 h DEFB1 (hBD-1) induction) was 12% and the “number of apoptotic cells (lower and upper right quadrants)” value (DU145 [3]; DU145, 24 h) was 34%. The “number of apoptotic cells (lower and upper right quadrants)” value (DU145 [3]; DU145, 48 h) was 59%, the “number of apoptotic cells (lower and upper right quadrants)” value (PC3 [4]; PC3, 12 h DEFB1 (hBD-1) induction) was 10% and the “number of apoptotic cells (lower and upper right quadrants)” value (PC3 [4]; PC3, 24 h) was 20%. For the same substance, the “number of apoptotic cells (lower and upper right quadrants)” value (PC3 [4]; PC3, 48 h) was 44%.
